Data set [1] concerns T. brucei brucei BSF. The data set can be described thus: T. brucei BSF viability, resazurin reduction. It is filed as cell-based, Trypanosoma brucei brucei. Conditions: for EC50: ± SD (Table 2) / ± SE (S3 Table); for viability at 25 µM: read-out: viability, T.brucei (25 µM).
Data set [2] relates to T. brucei brucei BSF. Also on record: method as in PMID 29425238. The settings on record: read-out: reported EC50 T. brucei; cited from earlier work.
Data set [3] relates to intracellular L. infantum amastigotes. The data set is described as follows: Parasite rescue assay (intramacrophage, J774 infected with L. infantum). It is filed as cell-based, Leishmania infantum. Conditions: for viability at 25 µM: J774, rescue assay in J774, 25 µM, read-out: Residual viability, intracellular L. infantum amastigote (25 µM).
For a further data set, the system named is T. cruzi trypomastigotes. The data set is described as follows: T. cruzi viability, resazurin reduction. It is filed as cell-based, Trypanosoma cruzi. Conditions: Trypanosoma cruzi; for viability at 2.5 µM: read-out: viability, T.cruzi (2.5 µM); for viability at 25 µM: read-out: viability, T.cruzi (25 µM). The method, boiled down:
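Y-strain trypomastigotes kept in supplemented liver infusion tryptose broth with 10% FCS, pH 7.2, at 28°C. Viability by fluorescence resazurin reduction; single-point screen at 2.5 μM, then 18-concentration dose response. Amphotericin B as control drug.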
A general note: The colour change of resazurin is a common sign of viable cells or microbes.

A further data set concerns L. major promastigotes. The data set can be described thus: L. major promastigote viability, resazurin reduction. Conditions: Leishmania major, read-out: viability, L.major promastigote (25 µM). It is filed as cell-based, Leishmania major. An excerpt: (§1) The infectivity of the parasites was boosted by passaging in Balb/c mice and culturing the infected lymph nodes after six weeks. L. infantum (MHOM / BR / 76 / M4192) parasite was passaged in the same media formulation with 0.5% urine.

Data set [4] relates to Murine macrophage cells (J774). The data set is described as follows: Cytotoxicity assay J774, resazurin reduction. It is filed as cell-based. Conditions: cytotoxicity, 72 h. The method, boiled down: (§2)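 J774 and HepG2 cells were seeded at 0.5x10^5 cell/well and exposed to serially diluted compounds for 72 h at 37°C, 5% CO2. Viability was read by fluorescence resazurin reduction (λEx 550 nm, λEm 590 nm).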

Data set [5] is described as follows: Cytotoxicity assay J774, resazurin reduction. Conditions: mouse, J774 macrophage cells; for viability at 72 h, 2.5 µM: read-out: viability, J774 (2.5 µM); for viability at 72 h, 25 µM: read-out: viability, J774 (25 µM). It is filed as cell-based, murine. The method, boiled down:
as §2

In data set [6] the test system is human hepatocyte carcinoma HepG2 cells. The data set is described as follows: Cytotoxicity assay HepG2, resazurin reduction. It is filed as cell-based. Conditions: cytotoxicity, 72 h, read-out: EC50 (CT50) HepG2. Here is the method: Mammalian cell lines (J774 and HepG2) were passaged in RPMI media supplemented with MEM, Pen-Strep (1%) and 10% FCS. Cultures were kept at 37°C incubator with 5% CO2 in filter-cap flasks.
Murine macrophage cells (J774) and human hepatocyte carcinoma HepG2 cells were seeded at 0.5x10^5 cell/well in 384 well plates in triplicate, exposed to serial dilution of compounds, dispensed using an Echo 650 acoustic dispenser (Labcyte). After incubation for 72 h at 37°C, 5% CO2, cell viability was determined using fluorescence resazurin reduction assay (λEx: 550 nm; λEm: 590 nm).

Data set [7] relates to L. infantum promastigotes. The data set is described as follows: L. infantum promastigote viability, resazurin reduction. It is filed as cell-based, Leishmania infantum. The settings on record: Leishmania infantum, sheet LTC_compound_viability, value ± spread; for viability at 2.5 µM: read-out: viability, L. infantum promastigote (2.5 µM); for viability at 25 µM: read-out: viability, L. infantum promastigote (25 µM).
Excerpt: as §1

The test system of data set [8] is L. major axenic amastigotes. The data set can be described thus: L. major axenic amastigote viability, resazurin reduction. Conditions: Leishmania major; for viability at 25 µM: read-out: viability, L.major amastigote (25 µM); for viability at 2.5 µM: read-out: viability, L.major amastigote(2.5 µM). The method, boiled down: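 Axenic L. major LV561 amastigotes were grown in Grace medium with 20% FCS, pH 5.4, at 33°C and seeded at 0.5x10^5 cells/well with compounds for 72 h. Resazurin was then added for 6 h and fluorescence read at ex 550/em 590 nm; hits were retested at 2.5 μM.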

The subject of another data set is E. histolytica. The data set is described as follows: E. histolytica viability, ATP luminescence (Cell titer glo). It is filed as cell-based, Entamoeba histolytica. Conditions: Entamoeba histolytica; for viability at 2.5 µM: read-out: viability, E.histolytica (2.5 µM); for viability at 25 µM: read-out: viability, E.histolytica (25 µM). The method, boiled down: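 E. histolytica strain B2-5 at 2.5x10^4 cells/ml was exposed to compound for 48 h at 37 °C under anaerobic conditions, with viability read as ATP luminescence (CellTiter-Glo). The primary screen used 25 μM in triplicate, and follow-up potency runs used 9–16-point ranges spanning 0.01–100 μM.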
Background: In ATP-based viability assays light output follows the ATP content of the culture.

Where [9] appears, read: Leishmania infantum, J774, read-out: EC50 L. infantum rescue assay, intramacrophage (J774), 18 concentrations.
Setting [10] is: read-out: EC50 L. infantum rescue assay, intramacrophage (J774), 18 concentrations.
Where [11] appears, read: Trypanosoma brucei, 2.5 µM, read-out: viability, T.brucei (2.5 µM).
Setting [12] is: Trypanosoma brucei, read-out: EC50 T. brucei BSF, dose response, triplicate.

Here are results for three molecules from publication PMC10994559 (PLOS Neglected Tropical Diseases, 2024).

Several values for one entry are separate records, joined by “and”; a condition that tells them apart may be missing. Equal entries are not always repeated. Where two headings read alike, the source gives them in different places.

With `NCc1ccc(Oc2ccc3c(c2)COB3O)cc1` [AN3057, reference compound], the “Residual viability, T.brucei (2.5 µM)” value with T. brucei brucei BSF [1] (BSF, 2.5 µM, 72 h) was 0.3%; in the data set on T. brucei brucei BSF [1] (BSF, 2.5 µM, 72 h, listed as An3057, 2.5 µM), 0.32±0.58%. Further, the “Residual viability, T.brucei (25 µM)” value in the data set with T. brucei brucei BSF [1] (BSF, 25 µM, 72 h) is reported as -2.85±1.48%. The EC50 with T. brucei brucei BSF [1] (dose response, triplicate, read-out: EC50 T. brucei BSF) is 0.005 ± 0.002 µM; in the data set on T. brucei brucei BSF [2], 0.0052 µM.

Broadly, the viability is a read-out of living cells in per cent, often relative to untreated cells. Regarding `CC(C)(C)OC(=O)NC(Cc1ccccc1)C(O)CNc1ccc(OC(F)(F)F)cc1` (centres unmarked) [LTC-1023], the EC50 in [3] (setting [9]) is 4.1 ± 1.8 µM; in data set [3] (setting [10]) it was 4.08 ± 1.8 µM; with T. brucei brucei BSF [1] (setting [12]) it was 1.1 ± 1.7 µM; in data set [4] (Mus musculus, J774, 72 h), above 25 µM; in [4], above 16 µM; in data set [6] (Homo sapiens, HepG2, 72 h), 16.7 ± 1.9 µM. Also, the EC50 in data set [6] is 31.6 µM and 16.7 µM. In addition, the viability at 25 µM in data set [3] (Leishmania infantum) turned out to be 4.9%; with T. brucei brucei BSF [1] (Trypanosoma brucei, 25 µM), 1.99 ± 1%; in the data set with T. cruzi trypomastigotes, 23.2 ± 1.67%; in the data set with L. major promastigotes (72 h), 88.6 ± 3.09%; in the data set on L. major promastigotes (25 µM) it was 0.83 ± 1.76%; in [7], 1.5 ± 0.05%. Further, the viability at 25 µM in data set [8] is 18 ± 1.91%; in the data set on E. histolytica, 59.6 ± 14.7%. The viability at 2.5 µM with T. brucei brucei BSF [1] (setting [11]) was -1.06 ± 0.31%; with T. brucei brucei BSF [1] (Trypanosoma brucei, 72 h, read-out: Residual viability, T.brucei (2.5 µM), BSF, 2.5 µM, 72 h), below 10%; in the data set on T. cruzi trypomastigotes, 58.51 ± 0.23%; in [7], 67.5 ± 2.44%; in data set [8], 68.4 ± 1.28%; in the data set on E. histolytica it was 48.5 ± 4.19%. Also, the viability at 72 h, 2.5 µM in data set [5] was determined as 96.7 ± 4.49%. In data set [5], the viability at 72 h, 25 µM stood at 75.7 ± 4.65%.

Take `CC(C)(C)OC(=O)NC(Cc1ccccc1)C(O)CNc1cccc(C(F)(F)F)c1` (centres unmarked) [LTC-1025]: the EC50 is 2.9 ± 2.9 µM in data set [3] (setting [9]); 2.8 µM and 2.84 µM in data set [3] (setting [10]); 3.7 ± 1.7 µM in the data set with T. brucei brucei BSF [1] (setting [12]); above 25 µM in [4] (Mus musculus, J774, 72 h); above 16 µM in data set [4]; 31.6 ± 1.7 µM in [6] (Homo sapiens, HepG2, 72 h). In addition, the EC50 in data set [6] is 33.8 µM and 31.6 µM. Besides, the viability at 25 µM in [3] (Leishmania infantum) came out at 2.8%; in the data set with T. brucei brucei BSF [1] (Trypanosoma brucei, 25 µM) it was 2.26 ± 1.07%; with T. cruzi trypomastigotes it was 23.4 ± 2.5%; in the data set with L. major promastigotes (72 h), 88.3 ± 1.36%; with L. major promastigotes (25 µM), 0.16 ± 0.69%; in data set [7], 0.7 ± 0.03%. Further, the figures for the viability at 25 µM (in data set [8]; in the data set on E. histolytica) were 21.2 ± 2.05% and 55.3 ± 4.32%, respectively. Besides, the viability at 2.5 µM amounted to 78 ± 4.59% in the data set on T. brucei brucei BSF [1] (setting [11]); 63.1 ± 2.47% with T. cruzi trypomastigotes; 55.3 ± 1.69% in data set [7]; 77 ± 1.6% in data set [8]; 45.9 ± 11.6% with E. histolytica. For the same molecule, the viability at 72 h, 2.5 µM in data set [5] stood at 75.1 ± 3.41%. Further, the viability at 72 h, 25 µM in [5] stood at 98.5 ± 8.61%.
